Laboratory results as given in patent US20150113683A1, “METHODS FOR PLANT TRANSFORMATION USING SPECTINOMYCIN SELECTION” (Monsanto Technology LLC, priority 2007, published 2015).
Several values for one entry are separate records, joined by “and”; a condition that tells them apart may be missing. Identical values can stand only once.

Experiments:
[1] = test system: 3 months stored dry soybean explants; assay: Stored dry soybean explants, spectinomycin, pre-culture: TF; type: cell-based; settings: nystatin 50 ppm and thiabendazole 10 ppm dissolved in DMSO added together to INO co-culture media
soybean explants [2] = assay: TDZ during inoculation/co-cultivation: GFP-positive bud/shoot development, glyphosate selection; type: cell-based, soybean (Glycine max); settings: for # Explants with GFP+ buds/shoots: 200 explants examined
soybean explants [3] = assay: TDZ in inoculation/co-culture medium: shoots harvested and transformed rooted shoots, glyphosate selection; type: cell-based, soybean (Glycine max)
soybean explants [4] = assay: BAP or TDZ for 4 days after co-cultivation: GFP-positive bud development, dicamba selection; type: cell-based, soybean (Glycine max); settings: for # Explants w/ GFP+ buds / % Explants w/ GFP+ buds: 0.01 mg/L dicamba selection, 24 DAI; for effect on final transformation frequencies (TFs): addition of cytokinin with dicamba selection
soybean explants [5] = assay: TDZ during inoculation and co-culture: development of GUS-positive buds; type: cell-based, soybean (Glycine max); settings: for # Explants w/ GUS+ buds (13 DAI): 96 explants assayed
dry soybean explants = assay: Transformation frequency of dry soybean explants using glyphosate or spectinomycin as selective agent; type: cell-based; settings: Glyphosate 50 uM in regeneration medium; dry soybean explants
soybean explants [6] = assay: BAP during co-culture and post co-culture delay: rooted plants and TF, spectinomycin selection; type: cell-based, soybean (Glycine max); settings: 150 mg/L spectinomycin selection
Experimental: Soybean explants were inoculated and co-cultured with Agrobacterium harboring pMON96999 (FIG. 2). The inoculation and co-culture medium were supplemented with 0, 1, 2, 3, 4 or 5 mg/L BAP. […] The explants were then transferred onto selection medium (the same as the delay medium but containing 150 mg/L spectinomycin) for shoot induction and selection. […] To determine how many explants could develop transformed shoots without BAP treatment, explant tissues were assayed for GUS activity at 42 days after inoculation. […] Most of them were axillary, and some of them were apparently chimeric. The explants treated with BAP had much less or non-elongated primary shoots, and more de novo shoots. Many of the shoots elongated on the selection medium and were harvested to induce roots on the root induction medium also containing 150 mg/L spectinomycin as in protocol “A”.

[7] = TDZ 0.5 mg/L in inoculation and co-cultivation medium
[8] = TDZ 1.0 mg/L in inoculation and co-cultivation medium
[9] = TDZ 1.5 mg/L in inoculation and co-cultivation medium
[10] = TDZ 2.0 mg/L in inoculation and co-cultivation medium
[11] = TDZ 3.0 mg/L in inoculation and co-cultivation medium
[12] = TDZ 1 mg/L for inoculation/co-culture, glyphosate selection
[13] = TDZ 2 mg/L for inoculation/co-culture, glyphosate selection
[14] = TDZ 3 mg/L for inoculation/co-culture, glyphosate selection
[15] = 1 mg/L for 4 days after co-cultivation
[16] = 2 mg/L for 4 days after co-cultivation
[17] = TDZ 0.5 mg/L for inoculation & co-culture
[18] = TDZ 1.0 mg/L for inoculation & co-culture
[19] = TDZ 2.0 mg/L for inoculation & co-culture
[20] = BAP 1 mg/L in co-culture & 4-d post co-culture delay medium
[21] = BAP 2 mg/L in co-culture & 4-d post co-culture delay medium
[22] = BAP 3 mg/L in co-culture & 4-d post co-culture delay medium
[23] = BAP 4 mg/L in co-culture & 4-d post co-culture delay medium
[24] = BAP 5 mg/L in co-culture & 4-d post co-culture delay medium

## c1ccc2[nH]c(-c3cscn3)nc2c1 [thiabendazole]
[1]
  health of explants: improved the health of explants

## C[C@@H]1[C@H](O)[C@@H](C)/C=C/C=C/CC/C=C/C=C/C=C/C=C/C(O[C@H]2O[C@H](C)[C@@H](O)[C@H](N)[C@@H]2O)CC2O[C@](O)(CC(O)C(O)CCC(O)CC(O)CC(O)CC(=O)O[C@H]1C)CC(O)C2C(=O)O (stereo partly shown) [nystatin]
[1]
  health of explants: improved the health of explants

## O=C(Nc1ccccc1)Nc1cnns1 [TDZ, thidiazuron]
Soybean explants [2]; [7]
  Frequency of explants with GFP+ buds/shoots: 18%
  # Explants with GFP+ buds/shoots: 36
Soybean explants [2]; [8]
  Frequency of explants with GFP+ buds/shoots: 24%
  # Explants with GFP+ buds/shoots: 48
Soybean explants [2]; [9]
  Frequency of explants with GFP+ buds/shoots: 25%
  # Explants with GFP+ buds/shoots: 50
Soybean explants [2]; [10]
  Frequency of explants with GFP+ buds/shoots: 30%
  # Explants with GFP+ buds/shoots: 60
Soybean explants [2]; [11]
  Frequency of explants with GFP+ buds/shoots: 32%
  # Explants with GFP+ buds/shoots: 64
Soybean explants [3]; TDZ 0.5 mg/L for inoculation/co-culture, glyphosate selection
  % Transformed rooted shoots: 1.1% and 1.4% and 4.3%
Soybean explants [3]; [12]
  % Transformed rooted shoots: 1.3% and 1.6% and 0.5% and 3.2% and 1%
  Shoots harvested, % Shooting Frequency: 4.9% and 7% and 3.5% and 13% and 6.8%
Soybean explants [3]; [13]
  % Transformed rooted shoots: 0.1% and 1.3% and 0.9% and 0.5%
  Shoots harvested, % Shooting Frequency: 1.4% and 4.9% and 5.1% and 6.7% and 1.9%
Soybean explants [3]; [14]
  % Transformed rooted shoots: 0.6% and 0.7%
  Rooted shoots, Total #: 5 and 8
  Shoots harvested, % Shooting Frequency: 4.7% and 1.9%
  Shoots harvested, Total #: 40 and 20
Soybean explants [4]; [15]
  # Explants w/ GFP+ buds: 71
  % Explants w/ GFP+ buds: 18.3%
Soybean explants [4]; [16]
  # Explants w/ GFP+ buds: 53
  % Explants w/ GFP+ buds: 13.8%
Soybean explants [4]
  effect on final transformation frequencies (TFs): no visible effect
Soybean explants [5]; [17]
  % Explants with GUS+ buds (13 DAI): 18.8%
  # Explants w/ GUS+ buds (13 DAI): 18
Soybean explants [5]; [18]
  % Explants with GUS+ buds (13 DAI): 35.4%
  # Explants w/ GUS+ buds (13 DAI): 34
Soybean explants [5]; [19]
  % Explants with GUS+ buds (13 DAI): 50.0%
  # Explants w/ GUS+ buds (13 DAI): 48

## O=C(O)CNCP(=O)(O)O [Glyphosate, glyphosate]
Soybean explants [3]; comparable experiments utilizing glyphosate as selective agent
  transformation frequency: ~2%
Dry soybean explants
  % TF: 2.00%

## c1ccc(CNc2ncnc3nc[nH]c23)cc1 [BAP, 6-Benzylaminopurine]
Soybean explants [4]; [15]
  # Explants w/ GFP+ buds: 12
  % Explants w/ GFP+ buds: 3.7%
Soybean explants [4]; [16]
  # Explants w/ GFP+ buds: 11
  % Explants w/ GFP+ buds: 3.3%
Soybean explants [4]
  effect on final transformation frequencies (TFs): no visible effect
Soybean explants [6]; [20]
  # Rooted plants: 103
  % TF: 26.1%
Soybean explants [6]; [21]
  # Rooted plants: 94
  % TF: 27.1%
Soybean explants [6]; [22]
  # Rooted plants: 87
  % TF: 24.9%
Soybean explants [6]; [23]
  # Rooted plants: 132
  % TF: 30.3%
Soybean explants [6]; [24]
  # Rooted plants: 116
  % TF: 26.6%
